Measured values: PubChem BioAssay (NCI)
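Values below derive from 48-hour exposures of cells grown in 96-well plates, with endpoints linearly interpolated between the two concentrations bracketing the appropriate inhibition level. At the GI50, growth is halved. TGI denotes the concentration required for complete inhibition of growth.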

Experiments:
Test in all cases: growth of human tumour cells (NCI), 48 h
[1] = system: A549 NSCLC
[2] = system: EKVX NSCLC
[3] = system: HCT-116 colon
[4] = system: LOX IMVI melanoma
[5] = system: MCF7 breast
[6] = system: NCI-H522 lung
[7] = system: SF-539 CNS
[8] = system: T-47D breast
[9] = system: DLD-1 colon
[10] = system: HOP-18 NSCLC
[11] = system: KM20L2 colon
[12] = system: SNB-78 CNS

| Structure (SMILES) | TGI [1] | TGI [2] | TGI [3] | TGI [4] | TGI [5] | TGI [6] | TGI [7] | TGI [8] | TGI [9] | TGI [10] | TGI [11] | TGI [12] | GI50 [7] | GI50 [1] | GI50 [2] | GI50 [3] | GI50 [4] | GI50 [5] | GI50 [6] | GI50 [8] |
| --- | --- | --- | --- | --- | --- | --- | --- | --- | --- | --- | --- | --- | --- | --- | --- | --- | --- | --- | --- | --- |
| COc1ccc(C2=[S+]C(c3ccccc3)(c3ccccc3)c3ccccc32)cc1 | > 100 µM | > 100 µM | 24.3 µM | 31.9 µM | > 100 µM | 79.8 µM | 40.4 µM | 84.3 µM | – | – | – | – | – | – | – | – | – | – | – | – |
| Nc1ccccc1C#CC(=O)c1cccc(C(F)(F)F)c1 | 33.6 µM | 38 µM | > 100 µM | 4.02 µM | 9.91 µM | 2.36 µM | 10.9 µM | > 100 µM | – | – | – | – | – | – | – | – | – | – | – | – |
| CCOC(=O)/C=C/c1c(C)[nH]c(=O)[nH]c1=O | > 250 µM | > 250 µM | > 250 µM | > 250 µM | > 250 µM | > 250 µM | > 250 µM | – | > 250 µM | > 250 µM | > 250 µM | > 250 µM | – | – | – | – | – | – | – | – |
| CN=C(Nc1ccc(OC)c2ccccc12)SC | > 10 µM | – | > 10 µM | > 10 µM | > 10 µM | > 10 µM | > 10 µM | > 10 µM | – | – | – | – | – | – | – | – | – | – | – | – |
| Cc1ccc(O)c(C2=CC3=NNC(=O)C3C(c3cccc(Cl)c3)C2)c1 (centres undefined) | > 100 µM | > 100 µM | > 100 µM | 49.1 µM | 47.1 µM | – | > 100 µM | > 100 µM | – | – | – | – | – | – | – | – | – | – | – | – |
| O=C(/C=C1\Sc2ccccc2N=C1CC(=O)c1ccccc1)c1ccccc1 | 25.1 µM | 37.4 µM | 19.2 µM | 21.2 µM | > 100 µM | 55.4 µM | 34.7 µM | 75.5 µM | – | – | – | – | – | – | – | – | – | – | – | – |
| C/C(=N\NC(=S)N1CCC(N2CCCCC2)CC1)c1ccccn1 | 10.3 µM | 12.1 µM | 7.02 µM | 8.28 µM | 10.6 µM | 0.646 µM | 8.36 µM | 7.01 µM | > 100 µM | 14.5 µM | 14.2 µM | 27.5 µM | – | – | – | – | – | – | – | – |
| COc1cccc2c1C(=O)c1c(O)c3c(c(O)c1C2=O)C[C@@](O)(C(=O)COC(=O)c1ccccc1)C[C@@H]3OC1CC(N)C(O)C(C)O1 (some centres undefined) | – | – | – | – | – | – | 1.13 µM | – | – | – | – | – | 0.254 µM | – | – | – | – | – | – | – |
| Cc1ccc(Cl)cc1N=NC(=O)NNc1cc(Cl)ccc1C | – | – | 51.6 µM | – | 80.7 µM | 27.6 µM | – | > 100 µM | – | – | – | – | – | – | – | – | – | – | – | – |
| N#[N+]c1c([O-])c2ccccc2c2ccccc12 | > 100 µM | 72.8 µM | > 100 µM | 86 µM | > 100 µM | 85 µM | 91 µM | > 100 µM | – | – | – | – | – | – | – | – | – | – | – | – |
| c1ccc2c(c1)c1ccccc1n2Cn1c2ccccc2c2ccccc21 | > 100 µM | > 100 µM | – | > 100 µM | – | > 100 µM | – | > 100 µM | – | – | – | – | – | – | – | – | – | – | – | – |
| Cc1cn(-c2cccc(NC(=O)c3ccc(C)c(Nc4nccc(-c5cccnc5)n4)c3)c2)cn1 | 3.34 µM | 6 µM | 3.05 µM | 3.48 µM | 4.74 µM | 3.07 µM | 2.97 µM | 9.6 µM | – | – | – | – | 1.45 µM | 1.55 µM | 2.16 µM | 1.64 µM | 1.73 µM | 1.94 µM | 1.44 µM | 1.42 µM |
| O=C1CCC[C@H]2O[C@@H](COC(=O)c3ccccc3)C[C@H]2O1 | > 100 µM | > 100 µM | – | – | > 100 µM | – | > 100 µM | > 100 µM | – | – | – | – | – | – | – | – | – | – | – | – |
| O=c1oc(-c2ccc(O)cc2)cc2cc(O)ccc12 | > 100 µM | > 100 µM | 39 µM | – | 52.9 µM | > 100 µM | > 100 µM | 49 µM | – | – | – | – | – | – | – | – | – | – | – | – |
| Cc1cc(N/N=C/c2nc(-c3ccc(Cl)cc3)oc2C)c2cc(Br)ccc2n1 | 3.71 µM | 28.1 µM | 4.04 µM | 3.73 µM | – | 4.51 µM | 3.69 µM | 3.51 µM | – | – | – | – | 1.9 µM | 1.77 µM | 14.4 µM | 2 µM | 1.93 µM | – | 2.02 µM | 1.79 µM |
| COc1ccc(/C=C2\C[C@H]3[C@@H]4CCC5=C/C(=N/O)CC[C@]5(C)[C@H]4CC[C@]3(C)\C2=N\O)cc1 | > 100 µM | > 100 µM | > 100 µM | > 100 µM | 88.5 µM | 91.7 µM | – | > 100 µM | – | – | – | – | – | – | – | – | – | – | – | – |
| O=c1nc2ccc([N+](=O)[O-])cc2[n+]([O-])[nH]1 | > 100 µM | > 100 µM | > 100 µM | > 100 µM | > 100 µM | > 100 µM | > 100 µM | > 100 µM | – | – | – | – | – | – | – | – | – | – | – | – |
| C/C(=N\NC(=O)c1ccc(Cl)cc1)c1nc2ncccc2[nH]1 | > 100 µM | > 100 µM | > 100 µM | 57.8 µM | > 100 µM | 58.3 µM | 40.3 µM | > 100 µM | – | – | – | – | – | – | – | – | – | – | – | – |
| O=C(N/N=C\c1cccc2ccccc12)Nc1ccccc1 | – | – | > 100 µM | > 100 µM | > 100 µM | – | – | > 100 µM | – | – | – | – | – | – | – | – | – | – | – | – |
| c1cc2c3c(c1)c1cc4c(cc1c[n+]3CC2)OCO4 | 10.2 µM | 14.4 µM | 75.9 µM | > 96.1 µM | 30.3 µM | 10.1 µM | 15.4 µM | – | 121 µM | 88.4 µM | 49.7 µM | 47.1 µM | – | – | – | – | – | – | – | – |
| CCc1ccc2[nH]c(O)c(C3=Nc4ccccc4C3=O)c2c1 | 59.7 µM | 24.2 µM | 35.4 µM | > 100 µM | 10.9 µM | 75.2 µM | – | 77.5 µM | – | – | – | – | – | – | – | – | – | – | – | – |
| O=C(NN1C(=O)C(Cl)C1c1cccc([N+](=O)[O-])c1)c1ccccc1O (centres undefined) | > 100 µM | > 100 µM | > 100 µM | – | – | > 100 µM | > 100 µM | – | – | – | > 100 µM | – | – | – | – | – | – | – | – | – |
| CCOc1cc(/C=C/C(=O)C(C(=O)/C=C/c2ccc(OC(=O)CNc3nc4ccccc4[nH]3)c(OCC)c2)C(=O)CNc2nc3ccccc3[nH]2)ccc1OC(=O)CNc1nc2ccccc2[nH]1 | 27 µM | 5.37 µM | 4.84 µM | 3.02 µM | 3.56 µM | 12.5 µM | 3.1 µM | 14.9 µM | – | – | – | – | 1.61 µM | 3.55 µM | 1.99 µM | 1.63 µM | 1.66 µM | 1.06 µM | 3.29 µM | 2.86 µM |
| O=c1[nH]c(SCc2cccc([N+](=O)[O-])c2)nc2nc[nH]c12 | > 100 µM | > 100 µM | > 100 µM | > 100 µM | > 100 µM | > 100 µM | – | > 100 µM | – | – | – | – | – | – | – | – | – | – | – | – |
| Oc1[nH]c2ccccc2c1C1=Nc2ccccc2/C1=N\OCCOC1OCC(O)C(O)C1O (centres undefined) | > 100 µM | > 100 µM | > 100 µM | > 100 µM | > 100 µM | > 100 µM | > 100 µM | > 100 µM | – | – | – | – | – | – | – | – | – | – | – | – |
